From publication PMC6781469 (Journal of Enzyme Inhibition and Medicinal Chemistry, 2019)
Like-named read-outs stand apart in the source and are kept apart here.

Assays:
FLT3(h) = biological target: T1, FLT3(h) (Homo sapiens, UniProt P36888); assay: Reaction Biology Kinase HotSpot radiometric kinase assay, FLT3; settings: for times more potent than 5f against FLT3: ratio of FLT3 IC50 versus 5f
T1 sequence (P36888 27-993): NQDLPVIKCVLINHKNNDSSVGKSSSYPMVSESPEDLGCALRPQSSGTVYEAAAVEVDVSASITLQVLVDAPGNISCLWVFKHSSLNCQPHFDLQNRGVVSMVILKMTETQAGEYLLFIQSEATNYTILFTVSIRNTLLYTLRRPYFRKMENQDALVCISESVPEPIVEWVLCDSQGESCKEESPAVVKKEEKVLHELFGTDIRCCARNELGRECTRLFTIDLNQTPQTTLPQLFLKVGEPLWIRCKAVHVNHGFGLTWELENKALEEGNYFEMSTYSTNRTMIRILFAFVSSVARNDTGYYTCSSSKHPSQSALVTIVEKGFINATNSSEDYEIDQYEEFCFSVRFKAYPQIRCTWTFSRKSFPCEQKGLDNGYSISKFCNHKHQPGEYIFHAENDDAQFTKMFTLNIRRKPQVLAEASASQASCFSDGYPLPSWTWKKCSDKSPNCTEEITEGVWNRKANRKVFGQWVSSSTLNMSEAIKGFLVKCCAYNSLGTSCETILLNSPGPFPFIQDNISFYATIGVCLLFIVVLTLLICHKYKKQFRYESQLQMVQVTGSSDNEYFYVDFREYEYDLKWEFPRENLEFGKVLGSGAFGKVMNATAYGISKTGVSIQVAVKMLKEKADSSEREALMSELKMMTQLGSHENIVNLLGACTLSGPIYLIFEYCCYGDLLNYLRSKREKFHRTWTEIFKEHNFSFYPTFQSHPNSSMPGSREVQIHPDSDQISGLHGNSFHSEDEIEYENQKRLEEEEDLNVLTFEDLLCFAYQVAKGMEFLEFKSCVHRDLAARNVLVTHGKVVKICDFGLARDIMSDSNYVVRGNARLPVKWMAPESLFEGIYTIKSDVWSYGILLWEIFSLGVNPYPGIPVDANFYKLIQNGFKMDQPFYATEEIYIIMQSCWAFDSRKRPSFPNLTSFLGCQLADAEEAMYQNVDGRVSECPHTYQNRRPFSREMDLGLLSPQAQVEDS

RAF1 = RAF1 (Homo sapiens, UniProt P04049); assay: kinase panel screen, RAF1; settings: read-out: % Inhibition RAF1
FMS = FMS (Homo sapiens, UniProt P07333); assay: Reaction Biology Kinase HotSpot kinase assay, FMS
FLT3 (ITD) = biological target: T2, FLT3 (ITD) (Homo sapiens, UniProt P36888, ITD); assay: kinase panel screen, FLT3 (ITD); settings: read-out: % Inhibition FLT3 (ITD)
T2 sequence (P36888 564-993): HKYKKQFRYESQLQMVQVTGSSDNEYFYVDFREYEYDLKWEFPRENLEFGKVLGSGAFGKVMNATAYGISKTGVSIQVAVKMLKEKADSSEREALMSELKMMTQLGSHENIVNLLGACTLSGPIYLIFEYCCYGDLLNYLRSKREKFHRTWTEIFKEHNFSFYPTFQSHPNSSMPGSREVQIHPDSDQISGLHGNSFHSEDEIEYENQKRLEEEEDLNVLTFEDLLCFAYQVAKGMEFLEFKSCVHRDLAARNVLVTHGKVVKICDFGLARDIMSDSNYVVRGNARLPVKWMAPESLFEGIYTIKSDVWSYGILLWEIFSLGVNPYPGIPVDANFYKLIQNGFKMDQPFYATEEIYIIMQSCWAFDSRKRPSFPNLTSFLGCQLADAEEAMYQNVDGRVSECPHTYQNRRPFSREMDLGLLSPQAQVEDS

KIT = tested on: KIT; design: method as in earlier work; settings: competitive-binding assays in vitro; read-out: IC50 against KIT; cited from earlier work
FLT-3 = tested on: FLT-3; design: method as in earlier work; settings: competitive-binding assays in vitro; read-out: IC50 against FLT-3; cited from earlier work

Chain of FMS (P07333 20-972): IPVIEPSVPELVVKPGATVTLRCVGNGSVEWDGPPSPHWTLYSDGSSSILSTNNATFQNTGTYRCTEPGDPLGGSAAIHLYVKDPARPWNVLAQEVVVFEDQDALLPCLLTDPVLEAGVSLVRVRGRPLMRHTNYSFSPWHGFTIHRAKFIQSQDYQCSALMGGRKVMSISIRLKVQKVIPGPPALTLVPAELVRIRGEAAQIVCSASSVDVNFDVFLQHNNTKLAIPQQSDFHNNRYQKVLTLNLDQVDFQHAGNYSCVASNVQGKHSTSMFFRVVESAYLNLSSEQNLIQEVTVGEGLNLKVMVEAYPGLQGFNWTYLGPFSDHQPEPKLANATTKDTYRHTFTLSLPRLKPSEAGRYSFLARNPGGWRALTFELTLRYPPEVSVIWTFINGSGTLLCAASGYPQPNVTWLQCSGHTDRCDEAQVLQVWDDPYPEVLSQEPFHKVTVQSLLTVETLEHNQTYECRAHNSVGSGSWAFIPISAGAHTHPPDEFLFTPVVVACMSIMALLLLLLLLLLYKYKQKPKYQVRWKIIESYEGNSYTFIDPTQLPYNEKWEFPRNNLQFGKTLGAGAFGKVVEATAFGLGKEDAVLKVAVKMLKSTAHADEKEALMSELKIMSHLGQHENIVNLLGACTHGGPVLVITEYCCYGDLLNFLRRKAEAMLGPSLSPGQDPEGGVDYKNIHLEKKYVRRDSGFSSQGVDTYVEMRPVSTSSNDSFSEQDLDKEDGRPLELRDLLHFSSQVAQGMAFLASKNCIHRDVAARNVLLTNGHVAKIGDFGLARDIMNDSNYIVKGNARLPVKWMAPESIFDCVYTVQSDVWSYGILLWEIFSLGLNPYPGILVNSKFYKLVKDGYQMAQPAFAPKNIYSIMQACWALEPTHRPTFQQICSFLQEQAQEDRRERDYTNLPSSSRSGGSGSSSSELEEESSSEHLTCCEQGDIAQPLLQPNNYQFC
Chain of RAF1 (P04049 whole entry): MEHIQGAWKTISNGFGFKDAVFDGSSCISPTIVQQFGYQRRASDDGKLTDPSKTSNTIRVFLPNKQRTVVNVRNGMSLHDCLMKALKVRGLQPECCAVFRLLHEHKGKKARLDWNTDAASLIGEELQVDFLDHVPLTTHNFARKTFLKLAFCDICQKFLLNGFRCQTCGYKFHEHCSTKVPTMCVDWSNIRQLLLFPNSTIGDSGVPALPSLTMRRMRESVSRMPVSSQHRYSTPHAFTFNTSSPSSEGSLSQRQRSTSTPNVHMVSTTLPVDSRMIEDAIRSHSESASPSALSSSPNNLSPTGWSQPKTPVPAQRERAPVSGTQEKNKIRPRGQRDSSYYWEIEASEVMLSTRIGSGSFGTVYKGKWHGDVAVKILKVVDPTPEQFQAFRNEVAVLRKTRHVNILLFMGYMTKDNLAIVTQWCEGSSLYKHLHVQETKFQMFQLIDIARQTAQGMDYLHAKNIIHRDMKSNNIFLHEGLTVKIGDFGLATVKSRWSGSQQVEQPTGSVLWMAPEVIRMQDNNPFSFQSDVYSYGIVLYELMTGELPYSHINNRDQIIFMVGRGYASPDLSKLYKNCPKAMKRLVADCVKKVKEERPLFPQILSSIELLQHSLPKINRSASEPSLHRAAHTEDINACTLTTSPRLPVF

`Cc1oncc1C(=O)Nc1ccc2nc(-c3cc(N4CCN(C)CC4)cc(C(F)(F)F)c3)[nH]c2c1` [5a, 5-methyl-N-(2-(3-(4-methylpiperazin-1-yl)-5-(trifluoromethyl)phenyl)-1H-benzo[d]imidazole-5-yl) isoxazole-4-carboxamide] gave an IC50 (FLT3(h)) of 0.495 µM, an inhibition at 10 µM (FLT3(h); read-out: % Inhibition FLT3) of 90% and an inhibition at 10 µM (RAF1) of 8.47%. The inhibition at 10 µM (FMS; read-out: % Inhibition FMS) was 0% and the inhibition at 10 µM (FLT3 (ITD)) was 88.5%.
Compound `Cc1oncc1C(=O)Nc1ccc2[nH]c(-c3cc(N4CCOCC4)cc(C(F)(F)F)c3)nc2c1` [5b] has an IC50 (FLT3(h); read-out: IC50 (µM) FLT3, enzymatic activity, Table 1, NA not defined) of 7.94 µM.
With `Cc1oncc1C(=O)Nc1ccc2[nH]c(-c3ccc(N4CCOCC4)c(C(F)(F)F)c3)nc2c1` [5c] the IC50 (FLT3(h)) was roughly 10 µM.
For `Cc1cn(-c2cc(-c3nc4cc(NC(=O)c5cnoc5C)ccc4[nH]3)cc(C(F)(F)F)c2)cn1` [5d], the IC50 (FLT3(h)) was 2.33 µM and the “times more potent than 5f against FLT3” value (FLT3(h)) was 6–8 times.
In the case of `Cc1oncc1C(=O)Nc1ccc2[nH]c(-c3cc(-n4cncc4C)cc(C(F)(F)F)c3)nc2c1` [5e], the IC50 (FLT3(h)) is reported as 1.62 µM, the “times more potent than 5f against FLT3” value (FLT3(h)) is reported as 6–8 times and the IC50 (FMS) is reported as 9.98 µM.
In the case of `Cc1oncc1C(=O)Nc1ccc2[nH]c(-c3cc(-n4ccnc4C)cc(C(F)(F)F)c3)nc2c1` [5f], the IC50 (FLT3(h)) is reported as 13.4 µM.
For `Cc1oncc1C(=O)Nc1cccc2[nH]c(-c3cc(N4CCN(C)CC4)cc(C(F)(F)F)c3)nc12` [6a], the IC50 (FLT3(h)) was 2.25 µM.
In the case of `Cc1oncc1C(=O)Nc1cccc2[nH]c(-c3ccc(N4CCOCC4)c(C(F)(F)F)c3)nc12` [6b], the IC50 (FLT3(h)) is reported as 13.9 µM.
Compound `Cc1cn(-c2cc(-c3nc4c(NC(=O)c5cnoc5C)cccc4[nH]3)cc(C(F)(F)F)c2)cn1` [6c] has an IC50 (FLT3(h)) of 6.2 µM.
In the case of `CC(C)(C)c1cc(NC(=O)Nc2ccc(-c3ccc(N)nc3)cc2)no1` [compound 1], the IC50 (KIT) is given as 0.001 µM and the IC50 (FLT-3) is given as 0.001 µM.
